Assay type in all cases: in vivo, human
For data set [1], the system named is healthy subjects. The data set is described as follows: Blood potassium, glucose and other peripheral effects of Compound 03-5 with or without nadolol. The source says:
Data are presented as individual observations for all available subjects.
(§1) Routine measures of ECG, vital signs, safety labs, physical exams and plasma sample collections for analysis of drug pharmacokinetics (PK) were undertaken according to the Schedule of Events (Table 1).

The subject of data set [2] is healthy subjects. The data set is described as follows: Heart rate by triplicate ECG after Compound 03-5 with or without nadolol pre-administration. The protocol: Heart rate was measured by triplicate ECG recordings. Data are presented as means changes from time-matched measures recorded on the day before the first dose of study drug (Day −1).
Healthy volunteers were be enrolled into 2 cohorts in a study to undertake within-subject dose titration of Compound 03-5 and/or nadolol in order to explore doses/dose combinations that mitigate peripheral effects of Compound 03-5, e.g. on heart rate, while preserving possible central effects of Compound 03-5 on cerebral perfusion and pupillary light reflex.
Cohort D1 enrolled 8 healthy subjects and undertook an evaluation of the effects of treatment on ECG following repeat dosing of Compound 03-5 in the presence of escalating doses of nadolol according to following schematic.
Eight healthy subjects aged 18-50 years were enrolled into Cohort D1 and received escalating doses of Compound 03-5 (3-12 mg) administered once daily 2 hours follow pre-administration of nadolol (1-40 mg). On all dosing days, study drug(s) were administered orally after an overnight fast of at least 8 hours.
as §1
(§2) In Cohort D2, 8 healthy volunteers aged 55-75 years were admitted on Day −1 for a 5-day confinement period at the research facility. During this confinement, subjects received escalating doses of open label Compound 03-5 (1-10 mg) once-daily from Day 1 through Day 3 2 hours after pre-administration of open-label nadolol (3 mg) one each for the 3 dosing days according to the following schematic. Subjects remained in-residency until all study procedures are completed on Day 4.

The subject of the next data set is subjects. The data set is described as follows: Visual verbal learning test (VVLT). The settings on record: crossover study, Part A.
For data set [3], the system named is healthy subjects. As to the kind of experiment: Adaptive tracking test (visuomotor coordination and vigilance). The settings on record: single dose of 160 μg clenbuterol. The source says:
Adaptive tracking measures visuomotor coordination and vigilance. In this test, the subject uses a joystick to move a small dot so that it stays within a continuously moving circle on a computer screen (Boland 1984). During the test, the speed of the circle is adjusted in response to the subject's ability to keep the dot in the circle, ensuring that the test is adapted to the individual subject. […] The improvement shown by subjects is in the same range as that seen with subjects treated with the acetylcholinesterase inhibitor donepezil, which is in clinical use for the treatment of mild to moderate AD (Groeneveld 2016).

The subject of the next data set is patients. The data set is described as follows: Cerebral blood flow relative to baseline after a single dose in patients (Example 1).
The test system of data set [4] is healthy subjects. As to the kind of experiment: ASL MRI cerebral perfusion before and after a single dose in healthy subjects (Example 3). The protocol: The data are plotted as change from baseline in cerebral blood flow in different regions of the brain.
Six healthy subjects aged 44-52 were treated with a single dose of […]. The Baseline vs. post-dose paired t-tests results: p=0.019. The color scale is shown in the middle and indicates cerebral blood flow with low values in red and high values in yellow.
In a clinical study, healthy subjects were administered doses of clenbuterol ranging from 20 to 160 μg and ASL MM was conducted prior to and after dosing with an objective to ascertain whether this neuroimaging method enables the detection of a clinically relevant CNS signal.
In a region of interest (ROI) analysis focusing on the hippocampus, which is well understood to be affected in neurodegenerative disorders, a single dose of 80 μg of clenbuterol causes a robust increase in perfusion (see FIG. 7). […] Taken together with other cohorts in which ASL MM was conducted, a clear dose response relationship is seen between dose of clenbuterol and cerebral perfusion (FIG. 8). […] Our hypothesis is that by improving cerebral perfusion, particularly in areas of the brain that are relevant for symptoms that are commonly found in neurodegenerative diseases such as PD and AD, the administration of a β-AR agonist (such as a β-agent) will have a positive effect on clinically relevant symptoms such as memory and cognition.

In data set [5] the test system is healthy volunteers aged 55-75 years. The data set is described as follows: CANTAB cognition battery, Cohort D2. The settings on record: Compound 03-5 1, 3 and 10 mg once daily, 2 h after 3 mg nadolol, change from within-day pre-dose. The protocol: CANTAB data from healthy adults 55-75 years of age (N=4) who received once-daily 3 mg nadolol and Compound 03-5 (1, 3, and 10 mg) on Day 1, Day 2 and Day 3. […] Data are presented as mean changes from the within-day pre-dose assessment.
In some embodiments, cognition may be evaluated using the Cambridge Neuropsychological Test Automated Battery (CANTAB) assessment (see, for example, Sahakian, et al., (1988). Brain. 111 (3): 695-718). Cognitive domains, such as attention, visuospatial working memory, episodic memory, speed of process and executive function can be assessed using the CANTAB Battery Test, which includes the following: • Reaction Time (RTI), • Paired Associates Learning (PAL), • Verbal Recognition Memory (VRM) Immediate Free Recall, • Rapid Visual Information Processing (RVP), • Spatial Working Memory (SWM), • Adaptive Tracking, and • VRM Delayed Free recall and Forced-Choice Recognition.
as §2

Where [6] appears, read: clenbuterol doses of 80 and 160 μg.

“Also recorded” adds a separate entry of the source.

Consider `CC(C)(C)NCC(O)COc1cccc2c1CC(O)C(O)C2` (stereo not shown) [nadolol], for which the “effect of nadolol on Compound 03-5 hypokalemia” value with healthy subjects [1] (nadolol 1-40 mg, Cohorts D1 and D2) is listed as “attenuation of hypokalemia”. The “effect of nadolol on effects of Compound 03-5 on blood glucose and potassium, tachycardia, tremor and palpitations” value with healthy subjects [1] (pre-administration of 1 mg nadolol, 6 mg Compound 03-5) is “Concomitant attenuation”. Besides, the “effect of nadolol on peripheral effects of Compound 03-5 on heart rate, glucose, potassium, tachycardia, tremor and palpitations” value in the data set with healthy subjects [2] (Cohort D1, pre-administered nadolol 1 mg up to 40 mg, Compound 03-5 3-12 mg) is given as “blocked the peripheral effects”. Also, the “effect of nadolol on Compound 03-5 increase in heart rate and other peripheral effects including hyperglycemia and hypokalemia” value in the data set on healthy subjects [2] (Cohort D1, pre-administration of 1 mg nadolol, Compound 03-5 orally up to 6 mg) is listed as “substantially attenuated”. Also, the “effect of nadolol on peripheral effects of Compound 03-5 on heart rate, etc.” value with healthy subjects [2] (Cohort D2, pre-administered nadolol 3 mg, Compound 03-5 1-10 mg) is on record as “similarly blocked the peripheral effects”.
On to `CC(C)NCC(O)COc1cccc2[nH]ccc12` (stereo not shown) [pindolol], for which, in the data set with subjects, the “effect on the VVLT” value was “detrimental effect”.
For the compound `CC(C)(C)NCC(O)c1cc(Cl)c(N)c(Cl)c1` (stereo not shown) [clenbuterol], the “cognition as measured by adaptive tracking and word recall” value with healthy subjects [3] (healthy subjects, preliminary data) was “improves cognition”. The “performance in adaptive tracking (percent time dot kept within moving circle)” value with healthy subjects [3] is reported as “improved adaptive tracking; also recorded: performance in adaptive tracking improves”. The “cerebral blood flow (CBF) relative to baseline” value in the data set with patients (single dose of clenbuterol 160 μg) is “robust global increase in cerebral blood flow; also recorded: positive increase in cerebral blood flow”; with patients (single dose of clenbuterol 160 μg and nadolol 5 mg), “robust global increase in cerebral blood flow”; in the data set with patients (single dose of clenbuterol ranging from 30 to 160 μg, tracked over 3 days) it was “robust global increase in cerebral blood flow”. For the same compound, the “effect on the VVLT” value in the data set on subjects was “positive effects”. Also, the “increase in hippocampal perfusion, on average” value in the data set with healthy subjects [4] (6 healthy subjects aged 44 to 52, single dose of 80 μg clenbuterol, hippocampus ROI) stood at 25%. For the same compound, the “cerebral perfusion increase as measured by CBF” value was “minimal increase” with healthy subjects [4] (clenbuterol dose of 40 μg) and “do not produce significant cerebral perfusion increases” with healthy subjects [4] (clenbuterol doses below 30 μg). The “global perfusion (ASL MRI)” value with healthy subjects [4] (setting [6]) is “robust, global increase in perfusion”. Moreover, the “improvement in perfusion in brain areas relevant to the neuropathology of neurodegenerative disorders” value in the data set with healthy subjects [4] (setting [6]) was roughly 25%. The “cerebral perfusion (ASL MRI)” value with healthy subjects [4] (healthy subjects, single dose of 160 μg clenbuterol) is on record as “robust global increase in cerebral perfusion”.
As for `CC(C)(C)NCC(O)c1ccc(O)c(CO)c1` (stereo not shown) [salbutamol], in the data set on subjects, the “effect on the VVLT” value was “positive effects”.
On to `CC(C)(C)NC[C@H](O)c1cccc(C#N)n1` [Compound 03-5, (S)-6-(2-(tert-butylamino)-1-hydroxyethyl)picolinonitrile], for which the “performance in the CANTAB cognition battery” value in data set [5] is listed as “improvements in performance in the CANTAB cognition battery”. Moreover, in the data set on healthy subjects [1] (Compound 03-5 monotherapy 0.3 mg-6 mg, Cohorts A1-A5), the “hypokalemia (blood potassium levels)” value is “Dose-dependent increases in hypokalemia”. Moreover, the “mean maximum increase in heart rate” value in the data set with healthy subjects [2] (6 mg Compound 03-5 after pre-administration of 1 mg nadolol) came out at 7 beats per minute.

The values are drawn from US20230263749A1, “COMPOSITIONS AND METHODS FOR IMPROVING NEUROLOGICAL DISEASES AND DISORDERS” (CuraSen Therapeutics, Inc., priority 2020, published 2023).
